Among the data in PubChem BioAssay AID540252 (Sanford-Burnham Center for Chemical Genomics, 2011) are IC50 values, retold here.

Activity calls are given as the source filed them. How the calls were made is not given here.

For the assay, the target named is glucose-6-phosphate dehydrogenase-6-phosphogluconolactonase (Plasmodium falciparum 3D7). Briefly: PfG6PD enzyme inhibitors, direct NADPH readout, dose response, orthogonal assay, biochemical, end-point NADPH detection (AID 540252). Particulars: purified PfG6PD enzyme.
`COc1cc(/C=C/C(=O)c2ccc([N+](=O)[O-])o2)ccc1O`: the IC50 was > 80 µM (inactive). To `Oc1ccc(C23CC4CC(CC(C4)C2)C3)cc1O` belongs 52 µM; to `CCOc1ccc(N(CC(=O)N/N=C/c2cc([N+](=O)[O-])ccc2Cl)S(C)(=O)=O)cc1`, > 80 µM (inactive). To `COc1ccc(S(=O)(=O)/N=C2\C=C(Nc3ccc(O)cc3)C(=O)c3ccccc32)cc1` belongs > 80 µM (inactive); to `Cc1cc(C(=O)O)ccc1-n1c(C)cc(C=C2C(=O)c3ccccc3C2=O)c1C`, > 80 µM (inactive).

Turning to `Cc1ccccc1-n1sc2cc(F)ccc2c1=O`, the IC50 is 8.11 µM. To `CCN(CC)c1nc(N)nc(NS(=O)(=O)c2ccc(Cl)cc2)n1` belongs > 80 µM (inactive); to `O=c1c2cc(F)ccc2sn1-c1ccccc1Cl`, 13.8 µM; to `O=c1c2ccccc2sn1-c1ccccc1F`, 14.9 µM. Turning to `Nc1ccc(S(=O)(=O)c2cc(O)c3ccccc3c2O)cc1`, the IC50 is > 80 µM (inactive). With `O=C1C=CC(=O)N1CCCCCCCCCCN1C(=O)C=CC1=O`, the IC50 was > 80 µM (inactive). To `CCOC(=O)c1cnc2ccc(C)cc2c1Sc1ccccc1C(=O)OC` belongs > 80 µM (inactive); to `COc1ccc(C2(CNC(=O)c3ccc(OC)c([N+](=O)[O-])c3)CCCCC2)cc1OC`, > 80 µM (inactive); to `CN1C(=O)C(N=Nc2ccc([N+](=O)[O-])cc2)SC1=S` (stereo unspecified), > 80 µM (inactive).

`COc1cc(C(=O)O/N=C2\C=CC(=O)C=C2C)cc(OC)c1OC`: the IC50 was > 80 µM (inactive). As to `O=C(COC(=O)c1ccc2c(c1[N+](=O)[O-])C(=O)c1ccccc1C2=O)NC1CC1`, the IC50 was > 80 µM (inactive).

Take `COc1ccc2c(c1)c(=Cc1ccc(N(C)C)cc1)c1cc(-c3ccccc3)[n+](C)n12`: the IC50 was > 80 µM (inactive). As for `COc1ccc2nc3cc(Cl)ccc3c(Nc3ccc(O)c(CN4CCN(C)CC4)c3)c2c1`, the IC50 was > 80 µM (inactive). To `C[C@]12CC[C@@H]3c4ccc(O)c(O)c4CC[C@H]3[C@@H]1CC[C@@H]2O` belongs 22.3 µM; to `Cc1ccc(SC2=C(Sc3ccc(C)cc3)C(=O)c3ccccc3C2=O)cc1`, > 80 µM (inactive); to `O=C(Nc1ccccc1C(=O)N/N=C/c1ccco1)c1ccccc1Cl`, > 80 µM (inactive).

On to `Cn1c(=O)[nH]c(=O)c2c1[nH]c(=S)n2CCCc1ccccc1`, for which the concentration for half-maximal inhibition (IC50) is 66.1 µM.

Take `COc1ccc(NC(C)C(=O)N/N=C/c2cc(Br)ccc2OC)cc1` (stereo unspecified): the IC50 is > 80 µM (inactive).

Regarding `Cc1cc(C)c2c(=O)n(CC(=O)Nc3cccc(Cl)c3C)sc2n1`, the IC50 was > 80 µM (inactive). With `Cn1c(=O)c2[nH]c(-c3ccccc3)c(O)c2n(C)c1=O` the figure was > 80 µM (inactive); with `O=C(CNC(=O)c1ccco1)OCC(=O)c1ccc([N+](=O)[O-])cc1`, 48.4 µM; with `O=C(Nc1nnc(S(=O)(=O)N2CCCCCC2)s1)c1cccc(Br)c1`, > 80 µM (inactive). In the case of `CC(=O)Nc1cc(OC(C)=O)c2nonc2c1OC(C)=O`, the IC50 was > 80 µM (inactive). To `Cc1c(/C=C/C(=O)c2ccc(Cl)s2)cnn1C` belongs > 80 µM (inactive); to `Cc1ccc(-n2sc3ccccc3c2=O)cc1`, 24.8 µM; to `O=C1C=CC2=C3c4cc(O)c(O)cc4CC3(O)COC2=C1O` (stereo unspecified), > 80 µM (inactive). To `O=c1c2ccccc2sn1-c1ccc(S(=O)(=O)N2CCCCC2)cc1` belongs > 80 µM (inactive); to `O=C(Cc1ccccc1)NCC(=O)OCC(=O)c1ccc([N+](=O)[O-])cc1`, 64 µM; to `O=c1c2cc(C(F)(F)F)ccc2sn1-c1ccccc1`, 26.2 µM. As for `CC(=NNC(=S)N1CCN(c2ccccn2)CC1)c1nccs1`, the IC50 is > 80 µM (inactive). `COc1cccc(/C=N/NC(=O)c2c(C)nc3ccc(Br)cn23)c1`: the IC50 is > 80 µM (inactive).

As to `CCOc1cc(CNc2ccc(N3CCCC3)cc2)cc(Cl)c1OC`, the IC50 is > 80 µM (inactive). With `O=C(CCc1ccc(O)c(O)c1)N/N=C/c1cc2c(cc1[N+](=O)[O-])OCO2` the figure was > 80 µM (inactive); with `Nc1ccc2c3c(cccc13)-c1ccccc1-2`, > 80 µM (inactive). With `Cc1cc(C)c2c(=O)n(CC(=O)Nc3cccc(F)c3)sc2n1` the figure was > 80 µM (inactive).

Take `O=C(CNc1ccc2c(c1)OCO2)N/N=C\c1cn(Cc2ccccc2)c2ccccc12`: the IC50 is > 80 µM (inactive). `O=S(=O)(Nc1c(O)ccc2ccccc12)c1ccccc1`: the IC50 is > 80 µM (inactive).

As to `O=C1/C(=C\c2ccc([N+](=O)[O-])cc2)CS(=O)(=O)C/C1=C/c1ccc([N+](=O)[O-])cc1`, the IC50 was > 80 µM (inactive). With `COc1ccc(N2CSC3=C(C#N)C(c4cc(OC)c(OC)cc4OC)CC(=O)N3C2)c(OC)c1` (stereo unspecified) the figure was > 80 µM (inactive); with `Cc1cc(O)c(C(C)C)cc1N=Cc1ccccc1[N+](=O)[O-]`, > 80 µM (inactive). Take `Cc1ccc(-c2csc(NC(=O)c3ccccc3F)c2C(=O)O)cc1`: the IC50 is > 80 µM (inactive).

In the case of `O=C(Nc1sc2c(c1C(=O)O)CCC2)c1ccc(F)cc1`, the IC50 is > 80 µM (inactive). To `Oc1cc(CNCc2ccccc2)c(O)cc1CNCc1ccccc1` belongs > 80 µM (inactive); to `COc1cc(/C=N/n2cc(-c3ccccc3)[nH]c2=S)cc(OC)c1O`, > 80 µM (inactive). With `O=C(Cn1sc2ccccc2c1=O)Nc1ccc(F)cc1` the figure was 21.9 µM; with `CCCCCCCCSC1=CC(=O)C(OC)=C(OC)C1=O`, > 80 µM (inactive). With `O=C(Cn1sc2ccccc2c1=O)Nc1ccc(Br)cc1` the figure was 22.4 µM; with `Cc1nc2ccccn2c1-c1ccnn1S(=O)(=O)c1ccc(F)cc1`, > 80 µM (inactive).

Turning to `COc1ccc(S(=O)(=O)Nc2cc(SCC(=O)O)c(O)c3ccccc23)cc1`, the IC50 was > 80 µM (inactive). Turning to `COc1cc(N)c2ncccc2c1OC`, the IC50 is > 80 µM (inactive). With `Cc1ccc(C)c(-n2sc3ccc(F)cc3c2=O)c1` the figure was 10.5 µM; with `O=C(O)c1cc(N2C(=O)C=CC2=O)cc(N2C(=O)C=CC2=O)c1`, 18.9 µM. Take `Cc1ccc(-n2sc3cc(F)ccc3c2=O)c(C)c1`: the half-maximal inhibitory concentration (IC50) was 12.2 µM. To `Oc1ccc(/C=N/N=C(c2ccccc2)c2ccccc2)c(O)c1O` belongs 67.4 µM. To `CC(NC1=CC(=O)c2cccnc2C1=O)C(O)c1ccccc1` (stereo unspecified) belongs > 80 µM (inactive); to `COc1cc(C(=O)ON=C2C=C(C)C(=O)C(C)=C2)cc(OC)c1OC`, > 80 µM (inactive).

For the compound `O=[N+]([O-])c1cccc(SSc2cccc([N+](=O)[O-])c2)c1`, the IC50 was 45.3 µM. To `CC(=O)OCCCNc1cc(Sc2nc3ccccc3s2)c2nonc2c1[N+](=O)[O-]` belongs > 80 µM (inactive); to `N#CC1=C(N)Oc2c(O)cc3ccccc3c2C1c1ccsc1` (stereo unspecified), > 80 µM (inactive); to `Cc1ccc(S(=O)(=O)SCCCSS(=O)(=O)c2ccc(C)cc2)cc1`, 38.8 µM. With `Cc1ccc(S(=O)(=O)N(C(=O)c2ccncc2)c2ccc(OC(=O)c3ccncc3)c3ccccc23)cc1` the figure was > 80 µM (inactive); with `COc1ccc(C(=O)Nc2cc(Cl)ccc2C(=O)O)cc1`, > 80 µM (inactive); with `Cc1c(C(=O)N(Cc2ccccc2Cl)C2CCS(=O)(=O)C2)oc2ccccc12` (stereo unspecified), > 80 µM (inactive). With `COc1ccc(OCc2nnc3n2N=C(c2ccccc2)C(CC(=O)O)S3)cc1` (stereo unspecified) the figure was > 80 µM (inactive); with `Cc1ccsc1/C=N/NC(=O)c1cccc(S(=O)(=O)Nc2ccccc2Cl)c1`, > 80 µM (inactive); with `CCN=c1scc(C)n1/N=C/c1ccc(O)c(O)c1O`, > 80 µM (inactive). For the compound `CCCNC(=O)Cn1sc2nc(C)cc(C)c2c1=O`, the IC50 was > 80 µM (inactive). To `O=S(c1ccccc1O)S(=O)c1ccccc1O` (stereo unspecified) belongs > 80 µM (inactive); to `CCN(CC)c1ccc(NC(=O)c2cccc(C)c2)cc1S(=O)(=O)Nc1ccccc1OC`, > 80 µM (inactive); to `COc1cc(NCCCn2cnc3c(OCc4ccccc4)ncnc32)cc(OC)c1OC`, > 80 µM (inactive). With `O=C1Nc2ccccc2C(=O)C1(Cl)Cc1ccccc1` (stereo unspecified) the figure was > 80 µM (inactive); with `COc1ccc(C(=O)c2c(C(F)(F)F)oc3c2C(=O)c2ccccc2C3=O)cc1OC`, > 80 µM (inactive); with `CCC(C)N(CCNC(=O)c1ccc2c(c1)NC(=O)c1ccccc1S2)C1CCCCC1` (stereo unspecified), 6.49 µM. With `O=C(CBr)c1ccc([N+](=O)[O-])c(CS(=O)(=O)c2ccc(Cl)cc2)c1` the figure was 42.5 µM; with `CC(=O)OCC1(C)CN(c2ccccc2)NC1=O` (stereo unspecified), > 80 µM (inactive); with `CCN(CC)CCn1c2ccccc2c(=O)c2c(O)ccc(O)c21`, > 80 µM (inactive).

On to `O=C1OC(c2ccc3ccccc3c2O)(c2ccc3ccccc3c2O)c2ccccc21`, for which the IC50 is > 80 µM (inactive). With `Cn1c2ccccc2c2ccc3c(c21)C(=O)C=CC3=O` the figure was > 80 µM (inactive). To `Cc1ccc(-c2nn(C)c(=O)c3ccccc23)cc1CNC(=O)/C=C/c1ccccc1` belongs > 80 µM (inactive); to `COc1cccc(CNc2ccc3[nH]c(=O)[nH]c3c2)c1OCc1ccc(F)cc1`, > 80 µM (inactive); to `O=C(O)c1cccc(N2C(=O)C=CC2=O)c1`, 67.4 µM. With `Cc1ccc(-c2nc(N)s[n+]2-c2ccccc2)cc1`, the half-maximal inhibitory concentration (IC50) is 60.3 µM. With `Cc1ccc2nc3sc(C(=O)N4CCOCC4)c(N)c3cc2c1` the figure was > 80 µM (inactive); with `O=[N+]([O-])c1ccc(Sc2cccc3cccnc23)c2cccnc12`, > 80 µM (inactive).

As for `O=C(CNC(=O)c1cccs1)OCC(=O)c1ccc([N+](=O)[O-])cc1`, the IC50 was 62.5 µM. To `COc1ccccc1N1CSC2=C(C#N)C(c3ccc(SC)cc3)CC(=O)N2C1` (stereo unspecified) belongs > 80 µM (inactive).
